Test results from patent publication US9963458B2, “Indole and indoline-type piperidine compounds and uses thereof” (priority 2012, dated 2018).

How the values were obtained:
Type in all cases: in vitro ADME
Conditions in all cases: procedure of Example 14
CYP2D6 = target: T1, CYP2D6 (Homo sapiens, UniProt P10635); test: Cytochrome P450 inhibition, pooled human hepatic microsome (O-demethylation of dextromethorphan)
T1 construct: 0.2 mg protein/mL pooled human hepatic microsome enzyme; from tissue; host or cells: pooled human hepatic microsomes
T1 sequence (P10635 whole entry): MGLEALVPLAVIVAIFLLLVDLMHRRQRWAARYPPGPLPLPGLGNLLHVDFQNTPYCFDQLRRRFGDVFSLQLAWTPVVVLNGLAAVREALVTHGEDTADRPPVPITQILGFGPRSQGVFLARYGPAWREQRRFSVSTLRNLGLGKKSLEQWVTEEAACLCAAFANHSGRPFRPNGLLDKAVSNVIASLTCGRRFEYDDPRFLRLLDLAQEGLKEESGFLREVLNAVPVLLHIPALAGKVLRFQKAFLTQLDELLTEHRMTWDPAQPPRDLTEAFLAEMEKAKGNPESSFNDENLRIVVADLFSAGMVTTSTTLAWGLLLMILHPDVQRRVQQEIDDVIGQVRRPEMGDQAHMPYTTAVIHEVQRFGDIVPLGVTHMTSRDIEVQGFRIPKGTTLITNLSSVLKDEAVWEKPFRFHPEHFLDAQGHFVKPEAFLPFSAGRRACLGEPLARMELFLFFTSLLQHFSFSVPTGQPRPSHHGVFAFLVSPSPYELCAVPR

CYP1A2 = target: T2, CYP1A2 (Homo sapiens, UniProt P05177); test: Cytochrome P450 inhibition, pooled human hepatic microsome
T2 sequence (P05177 1-516): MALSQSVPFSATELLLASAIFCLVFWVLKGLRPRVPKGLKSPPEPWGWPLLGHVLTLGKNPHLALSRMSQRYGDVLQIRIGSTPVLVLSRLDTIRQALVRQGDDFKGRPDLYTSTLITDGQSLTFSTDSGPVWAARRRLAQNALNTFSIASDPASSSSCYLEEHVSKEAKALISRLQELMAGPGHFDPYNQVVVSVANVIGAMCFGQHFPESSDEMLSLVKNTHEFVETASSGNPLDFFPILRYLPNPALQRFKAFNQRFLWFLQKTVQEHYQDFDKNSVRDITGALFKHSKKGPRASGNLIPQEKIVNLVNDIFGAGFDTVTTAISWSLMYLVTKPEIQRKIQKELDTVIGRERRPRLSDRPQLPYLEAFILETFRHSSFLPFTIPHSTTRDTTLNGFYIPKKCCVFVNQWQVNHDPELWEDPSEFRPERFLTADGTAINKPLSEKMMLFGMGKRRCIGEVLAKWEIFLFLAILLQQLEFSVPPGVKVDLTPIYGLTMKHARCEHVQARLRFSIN

CYP2C9 = target: T3, CYP2C9 (Homo sapiens, UniProt P11712); test: as above
T3 construct: 0.2 mg protein/mL pooled human hepatic microsome enzyme; from tissue; host or cells: pooled human hepatic microsomes
T3 sequence (P11712 whole entry): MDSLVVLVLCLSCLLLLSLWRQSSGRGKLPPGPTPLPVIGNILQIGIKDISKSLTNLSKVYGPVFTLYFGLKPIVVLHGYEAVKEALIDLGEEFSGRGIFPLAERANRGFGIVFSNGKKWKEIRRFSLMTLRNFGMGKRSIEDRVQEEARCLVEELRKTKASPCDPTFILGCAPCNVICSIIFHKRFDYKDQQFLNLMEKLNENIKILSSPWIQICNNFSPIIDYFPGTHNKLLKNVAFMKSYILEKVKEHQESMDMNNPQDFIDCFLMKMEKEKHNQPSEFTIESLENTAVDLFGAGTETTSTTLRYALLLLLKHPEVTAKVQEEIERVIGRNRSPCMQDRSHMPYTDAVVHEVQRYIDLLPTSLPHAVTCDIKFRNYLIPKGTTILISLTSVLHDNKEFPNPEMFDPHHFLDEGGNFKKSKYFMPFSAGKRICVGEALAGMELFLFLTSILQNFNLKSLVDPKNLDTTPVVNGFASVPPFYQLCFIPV

CYP3A4 = target: T4, CYP3A4 (Homo sapiens, UniProt P08684); test: as above
T4 construct: 0.2 mg protein/mL pooled human hepatic microsome enzyme; from tissue; host or cells: pooled human hepatic microsomes
T4 sequence (P08684 whole entry): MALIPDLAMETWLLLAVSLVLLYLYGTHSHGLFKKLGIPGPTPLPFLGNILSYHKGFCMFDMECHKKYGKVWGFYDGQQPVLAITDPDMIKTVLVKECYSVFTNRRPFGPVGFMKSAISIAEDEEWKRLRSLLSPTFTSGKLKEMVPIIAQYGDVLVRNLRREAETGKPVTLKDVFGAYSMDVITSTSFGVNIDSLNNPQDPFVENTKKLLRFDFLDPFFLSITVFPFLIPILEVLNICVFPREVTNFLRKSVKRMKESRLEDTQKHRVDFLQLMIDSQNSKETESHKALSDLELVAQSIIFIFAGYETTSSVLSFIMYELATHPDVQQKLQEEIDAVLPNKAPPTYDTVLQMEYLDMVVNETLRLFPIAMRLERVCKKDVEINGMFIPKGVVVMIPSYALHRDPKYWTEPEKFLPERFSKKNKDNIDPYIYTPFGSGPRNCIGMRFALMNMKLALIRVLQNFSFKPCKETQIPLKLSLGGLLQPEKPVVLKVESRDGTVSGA

Compound	IC50 (CYP2D6) [µM]	IC50 (CYP1A2) [µM]	IC50 (CYP2C9) [µM]	IC50 (CYP3A4) [µM]
O=C(O)Cc1cn([C@H]2C[C@H]3CCC[C@@H](C2)N3[C@H]2C[C@@H]3CCC[C@@H](C3)C2)c2ccccc12 [Compound 7]	14.6	> 20	> 20	> 20
c1ccc2c(c1)ccn2[C@H]1C[C@H]2CCC[C@@H](C1)N2[C@H]1C[C@@H]2CCC[C@@H](C2)C1 [Compound 11]	> 20	> 20	> 20	> 20
O=C(O)Cc1cn([C@H]2C[C@H]3CCC[C@@H](C2)N3C2CCCCCCCCC2)c2ccccc12 [Compound 23, 2-(1-((1R,3r,5S)-9-cyclodecyl-9-azabicyclo[3.3.1]nonan-3-yl)-1H-indol-3-yl)acetic acid]	1.15	> 20	> 20	> 20
